Here are results for 24 compounds from ChEMBL document CHEMBL4613210, “Tacrines for Alzheimer's disease therapy. III. The PyridoTacrines” (Eur J Med Chem, 2019).

In assay [1] the target is Acetylcholinesterase (Electrophorus electricus, UniProt O42275).
Description: Inhibition of electric eel AChE
Assay [2] addresses Voltage-gated calcium channel.
Description: Inhibition of VGCC (unknown origin)
Assay [3] concerns the target T1, Acetylcholinesterase (Bos taurus, UniProt P23795).
T1 sequence (P23795 whole entry): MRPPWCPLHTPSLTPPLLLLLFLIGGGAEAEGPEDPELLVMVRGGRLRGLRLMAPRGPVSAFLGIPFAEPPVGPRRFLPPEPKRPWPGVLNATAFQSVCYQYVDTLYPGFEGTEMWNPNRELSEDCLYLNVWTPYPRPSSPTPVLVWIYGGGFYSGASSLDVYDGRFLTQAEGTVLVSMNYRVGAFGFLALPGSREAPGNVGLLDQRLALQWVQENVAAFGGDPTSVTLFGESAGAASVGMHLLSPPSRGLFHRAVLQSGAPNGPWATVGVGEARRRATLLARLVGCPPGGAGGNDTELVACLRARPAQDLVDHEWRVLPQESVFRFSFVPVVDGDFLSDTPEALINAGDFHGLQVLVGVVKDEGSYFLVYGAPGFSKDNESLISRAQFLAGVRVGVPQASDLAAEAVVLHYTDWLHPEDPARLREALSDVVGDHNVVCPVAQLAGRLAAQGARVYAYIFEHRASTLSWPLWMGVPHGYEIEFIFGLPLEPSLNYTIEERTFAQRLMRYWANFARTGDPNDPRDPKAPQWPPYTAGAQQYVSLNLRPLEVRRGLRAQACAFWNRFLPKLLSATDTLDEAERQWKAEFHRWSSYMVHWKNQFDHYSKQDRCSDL
The assay can be described thus: Inhibition of bovine erythrocytes AChE using acetylthiocholine iodide as substrate by Ellman's methods. In general terms: DTNB colorimetry detects thiols as they appear.

Assay [4] deals with T2, Cholinesterase (Homo sapiens, UniProt P06276).
Description: Inhibition of human serum BuChE using butyrylthiocholine iodide as substrate by Ellman's methods
The target in assay [5] is T2, Cholinesterase. This is another data set of the same source.
Description: Inhibition of BuChE (unknown origin)
Assay [6] concerns the target Acetylcholinesterase (Homo sapiens, UniProt P22303). The assay can be described thus: Inhibition of human AChE.
The target of assay [7] is T2, Cholinesterase. The assay can be described thus: Inhibition of human BuChE.

Acetylcholinesterase (Electrophorus electricus, UniProt O42275), sequence (O42275 whole entry): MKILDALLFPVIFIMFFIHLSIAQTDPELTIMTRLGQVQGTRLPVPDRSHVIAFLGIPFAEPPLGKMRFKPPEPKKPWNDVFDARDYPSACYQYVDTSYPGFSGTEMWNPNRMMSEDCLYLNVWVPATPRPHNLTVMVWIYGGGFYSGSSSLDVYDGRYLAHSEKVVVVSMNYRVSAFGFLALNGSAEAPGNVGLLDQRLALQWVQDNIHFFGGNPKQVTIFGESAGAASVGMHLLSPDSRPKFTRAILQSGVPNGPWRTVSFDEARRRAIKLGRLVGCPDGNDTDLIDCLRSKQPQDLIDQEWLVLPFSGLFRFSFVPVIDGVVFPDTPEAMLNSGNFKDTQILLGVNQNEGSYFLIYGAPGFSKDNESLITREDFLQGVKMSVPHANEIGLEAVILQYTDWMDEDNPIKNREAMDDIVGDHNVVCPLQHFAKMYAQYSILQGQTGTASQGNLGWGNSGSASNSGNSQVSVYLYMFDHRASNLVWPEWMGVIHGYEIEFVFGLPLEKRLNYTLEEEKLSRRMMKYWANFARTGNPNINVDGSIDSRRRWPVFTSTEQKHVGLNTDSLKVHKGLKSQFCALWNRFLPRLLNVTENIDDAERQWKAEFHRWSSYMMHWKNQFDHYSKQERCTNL
T2 sequence (P06276 whole entry): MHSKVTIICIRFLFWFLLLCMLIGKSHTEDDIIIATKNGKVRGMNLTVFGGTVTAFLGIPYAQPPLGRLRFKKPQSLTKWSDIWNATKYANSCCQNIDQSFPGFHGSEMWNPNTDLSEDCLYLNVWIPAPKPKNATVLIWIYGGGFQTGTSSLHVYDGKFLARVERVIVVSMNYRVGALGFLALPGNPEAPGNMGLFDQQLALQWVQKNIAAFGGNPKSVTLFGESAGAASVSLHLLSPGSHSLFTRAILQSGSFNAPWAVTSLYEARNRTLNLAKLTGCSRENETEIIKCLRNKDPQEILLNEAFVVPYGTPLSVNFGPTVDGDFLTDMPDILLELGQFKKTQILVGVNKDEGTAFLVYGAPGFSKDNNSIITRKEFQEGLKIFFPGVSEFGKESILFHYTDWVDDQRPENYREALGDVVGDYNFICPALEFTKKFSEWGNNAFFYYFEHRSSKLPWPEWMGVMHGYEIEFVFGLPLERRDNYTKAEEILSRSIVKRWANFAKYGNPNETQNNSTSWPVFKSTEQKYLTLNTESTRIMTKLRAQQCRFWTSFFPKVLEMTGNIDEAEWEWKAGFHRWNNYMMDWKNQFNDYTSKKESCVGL
Acetylcholinesterase (Homo sapiens, UniProt P22303), sequence (P22303 whole entry): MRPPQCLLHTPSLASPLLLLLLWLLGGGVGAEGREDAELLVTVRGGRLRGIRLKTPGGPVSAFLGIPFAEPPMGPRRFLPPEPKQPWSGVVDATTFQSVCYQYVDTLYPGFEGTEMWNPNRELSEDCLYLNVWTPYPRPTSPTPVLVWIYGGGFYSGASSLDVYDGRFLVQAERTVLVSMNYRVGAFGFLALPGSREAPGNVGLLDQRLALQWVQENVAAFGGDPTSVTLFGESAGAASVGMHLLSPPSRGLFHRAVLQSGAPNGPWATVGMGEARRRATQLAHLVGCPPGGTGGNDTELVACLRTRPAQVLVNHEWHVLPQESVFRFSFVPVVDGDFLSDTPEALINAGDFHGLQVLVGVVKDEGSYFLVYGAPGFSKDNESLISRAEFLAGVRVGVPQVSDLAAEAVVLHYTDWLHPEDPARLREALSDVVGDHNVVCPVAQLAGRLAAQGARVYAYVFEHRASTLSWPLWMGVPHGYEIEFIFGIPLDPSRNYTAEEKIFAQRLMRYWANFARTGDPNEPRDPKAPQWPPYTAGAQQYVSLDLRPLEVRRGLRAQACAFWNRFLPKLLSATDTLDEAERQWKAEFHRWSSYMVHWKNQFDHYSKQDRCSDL

A word on the IC50: it is the midpoint of a concentration-inhibition curve. For the compound `CCOC(=O)c1c(C)nc2nc3c(c(N)c2c1-c1ccc(C)cc1)CCCCC3`, the figures for the IC50 (against Acetylcholinesterase [1]; in assay [2]) were 13 µM and 24 µM, respectively.

On to `CCOC(=O)c1c(C)nc2nc3c(c(N)c2c1-c1ccccc1OC)CCCCC3`, for which the values for the IC50 (on Acetylcholinesterase [1]; in assay [2]) were 22 µM and 17 µM, respectively.

As to `CCOC(=O)c1c(C)nc2nc3c(c(N)c2c1-c1ccc(Cl)cc1)CCCCC3`, the half-inhibitory concentration (IC50) on Acetylcholinesterase [1] turned out to be 19 µM; in assay [2], 27 µM.

Regarding `CCOC(=O)c1c(C)nc2nc3c(c(N)c2c1-c1ccccc1)CCCCCC3`, the IC50 at Acetylcholinesterase [1] came to 17 µM; in assay [2] it was 10 µM.

For `CCOC(=O)c1c(C)nc2nc3c(c(N)c2c1-c1ccc(OC)cc1)CCCCCC3`, the 50% inhibitory concentration (IC50) at Acetylcholinesterase [1] turned out to be 17 µM; in assay [2] it was 20 µM.

For `CCOC(=O)c1c(C)nc2nc3c(c(N)c2c1-c1ccc(OC)cc1)CCCCC3`, the IC50 on Acetylcholinesterase [3] (read-out: IC50) amounted to 1.3 µM; at Cholinesterase [4], 80.6 µM.

Regarding `CCOC(=O)c1c(C)nc2nc3c(c(N)c2c1-c1ccc(OC)c(OC)c1)CCCC3`, the IC50 came out at 1.3 µM at Acetylcholinesterase [1] and 26 µM in assay [2].

Take `CCOC(=O)c1c(C)nc2nc3c(c(N)c2c1-c1ccc(F)cc1)CCCC3`: the results for the IC50 (against Acetylcholinesterase [1]; at Cholinesterase [5]; in assay [2]) were 0.7 µM, 12 µM and 38 µM, respectively.

Turning to `CCOC(=O)c1c(C)nc2nc3c(c(N)c2c1-c1ccc(F)cc1)CCCCC3`, the concentration for half-maximal inhibition (IC50) was 5.4 µM at Acetylcholinesterase [1] and 17 µM in assay [2].

With `CCOC(=O)c1c(C)nc2nc3c(c(N)c2c1-c1ccc(Cl)cc1)CCCC3`, the IC50 against Acetylcholinesterase [1] was 1.3 µM; against Cholinesterase [5], 52 µM; in assay [2], 34 µM.

In the case of `CCOC(=O)c1c(C)nc2nc3c(c(N)c2c1-c1ccc(OC)c(OC)c1)CCCCC3`, the IC50 was 6.4 µM against Acetylcholinesterase [1] and 9 µM in assay [2].

As for `Cc1nc2nc3c(c(N)c2c(-c2ccccc2)c1C(=O)OC(C)C)CCCC3`, the results for the IC50 (at Acetylcholinesterase [1]; on Cholinesterase [5]; in assay [2]) were 1.2 µM, 12 µM and 10 µM, respectively.

Turning to `CCOC(=O)c1c(C)nc2nc3c(c(N)c2c1-c1ccccc1)CCCC3`, the IC50 against Acetylcholinesterase [3] was found to be 0.82 µM; against Cholinesterase [5], 5 µM; in assay [2] it was 20 µM; against Cholinesterase [4], 5 µM.

As for `CCOC(=O)c1c(C)nc2nc3c(c(N)c2c1-c1ccccc1)CCCCC3`, the IC50 against Acetylcholinesterase [3] was 21 µM.

With `CCOC(=O)c1c(C)nc2nc3c(c(N)c2c1-c1ccc(OC)cc1)CCCC3`, the IC50 against Acetylcholinesterase [3] amounted to 9 µM.

The compound `CCOC(=O)c1c(C)nc2nc3c(c(N)c2c1-c1ccccc1)CCC3` came in with an IC50 against Acetylcholinesterase [3] of 11.9 µM.

Regarding `CCOC(=O)c1c(C)nc2nc3c(c(N)c2c1-c1ccc(OC)cc1)CCC3`, the IC50 at Acetylcholinesterase [3] (read-out: IC50) turned out to be 14 µM.

As for `CCOC(=O)c1c(C)nc2nc3c(c(N)c2c1-c1cccc(OC)c1)CCCC3`, the figures for the IC50 (against Acetylcholinesterase [1]; against Cholinesterase [5]; in assay [2]) were 1.2 µM, 31 µM and 15 µM, respectively.

Turning to `CCOC(=O)c1c(C)nc2nc3c(c(N)c2c1-c1cccc([N+](=O)[O-])c1)CCCC3`, the IC50 came out at 0.9 µM on Acetylcholinesterase [1], 21 µM at Cholinesterase [5] and 18 µM in assay [2].

Consider `CCOC(=O)c1c(C)nc2nc3c(c(N)c2c1-c1ccc([N+](=O)[O-])cc1)CCCCC3`, for which the figures for the IC50 (against Acetylcholinesterase [1]; in assay [2]) were 14 µM and 13 µM, respectively.

`CCOC(=O)c1c(C)nc2nc3c(c(N)c2c1-c1cccc(OC)c1)CCCCC3`: in assay [2], the IC50 was 9 µM.

On Acetylcholinesterase [6], `COc1ccc(C2c3c(nc4c(c3N)CCCC4)Oc3ccc4ccccc4c32)cc1OC` (racemic) showed an IC50 of 0.083 µM.

With `COc1cc(C2c3ccc(O)cc3Oc3nc4c(c(N)c32)CCCC4)cc(OC)c1OC` (racemic), the IC50 at Acetylcholinesterase [3] (read-out: IC50) amounted to 0.041 µM.

Take `CCOC(=O)C1=C(C)Oc2nc3c(c(N)c2C1c1ccc(OC)cc1)CCCC3` (racemic): the concentration for half-maximal inhibition (IC50) at Acetylcholinesterase [3] (read-out: IC50) is 0.87 µM; on Cholinesterase [7] it was 6.2 µM; at Cholinesterase [4] it was 6.2 µM.
